Reference: PubChem BioAssay AID1259407 (Chemical Carcinogenesis Research Information System (CCRIS), 2018)
Active and inactive are the calls of the source. The rule behind the calls is not given here.

System: CCRIS mutagenicity, Ames/micronucleus/aberration tests
Assay: CCRIS mutagenicity studies

c1ccc(NNc2ccccc2)cc1
mutagenic call (End Point: IN VITRO CHROMOSOMAL ABERRATIONS, Test System: CHINESE HAMSTER OVARY CELLS, Metabolic Activation: NONE): active; positive; statistically significant increase, but not dose-related | mutagenic call (End Point: IN VITRO CHROMOSOMAL ABERRATIONS, Test System: CHINESE HAMSTER OVARY CELLS, Metabolic Activation: RAT, LIVER, S-9, AROCLOR 1254): active; positive | mutagenic call (Test System: AMES SALMONELLA TYPHIMURIUM, Strain/Indicator: TA98, Metabolic Activation: HAMSTER, LIVER, S-9, AROCLOR 1254, Method: STANDARD PLATE): inactive; negative | mutagenic call (Test System: AMES SALMONELLA TYPHIMURIUM, Strain/Indicator: TA98, Metabolic Activation: HAMSTER, LIVER, S-9, Method: STANDARD PLATE): inactive; negative | mutagenic call (Test System: AMES SALMONELLA TYPHIMURIUM, Strain/Indicator: TA98, Metabolic Activation: MOUSE, LIVER, S-9, AROCLOR 1254, Method: STANDARD PLATE): inactive; negative | mutagenic call (Test System: AMES SALMONELLA TYPHIMURIUM, Strain/Indicator: TA98, Metabolic Activation: MOUSE, LIVER, S-9, Method: STANDARD PLATE): inactive; negative | mutagenic call (Test System: AMES SALMONELLA TYPHIMURIUM, Strain/Indicator: TA98, Metabolic Activation: NONE, Method: STANDARD PLATE): inactive; negative | mutagenic call (Test System: AMES SALMONELLA TYPHIMURIUM, Strain/Indicator: TA98, Metabolic Activation: RAT, LIVER, S-9, Method: STANDARD PLATE): inactive; negative | mutagenic call (Test System: AMES SALMONELLA TYPHIMURIUM, Strain/Indicator: TA100, Metabolic Activation: HAMSTER, LIVER, S-9, AROCLOR 1254, Method: STANDARD PLATE): inactive; negative | mutagenic call (Test System: AMES SALMONELLA TYPHIMURIUM, Strain/Indicator: TA100, Metabolic Activation: HAMSTER, LIVER, S-9, Method: STANDARD PLATE): inactive; negative | mutagenic call (Test System: AMES SALMONELLA TYPHIMURIUM, Strain/Indicator: TA100, Metabolic Activation: MOUSE, LIVER, S-9, AROCLOR 1254, Method: STANDARD PLATE): active; positive | mutagenic call (Test System: AMES SALMONELLA TYPHIMURIUM, Strain/Indicator: TA100, Metabolic Activation: MOUSE, LIVER, S-9, Method: STANDARD PLATE): inactive; negative | mutagenic call (Test System: AMES SALMONELLA TYPHIMURIUM, Strain/Indicator: TA100, Metabolic Activation: NONE, Method: STANDARD PLATE): inactive; negative | mutagenic call (Test System: AMES SALMONELLA TYPHIMURIUM, Strain/Indicator: TA100, Metabolic Activation: RAT, LIVER, S-9, AROCLOR 1254, Method: STANDARD PLATE): active; positive | mutagenic call (Test System: AMES SALMONELLA TYPHIMURIUM, Strain/Indicator: TA100, Metabolic Activation: RAT, LIVER, S-9, Method: STANDARD PLATE): inactive; negative | mutagenic call (Test System: AMES SALMONELLA TYPHIMURIUM, Strain/Indicator: TA1535, Metabolic Activation: HAMSTER, LIVER, S-9, AROCLOR 1254, Method: STANDARD PLATE): inactive; negative | mutagenic call (Test System: AMES SALMONELLA TYPHIMURIUM, Strain/Indicator: TA1535, Metabolic Activation: HAMSTER, LIVER, S-9, Method: STANDARD PLATE): inactive; negative | mutagenic call (Test System: AMES SALMONELLA TYPHIMURIUM, Strain/Indicator: TA1535, Metabolic Activation: MOUSE, LIVER, S-9, Method: STANDARD PLATE): inactive; negative | mutagenic call (Test System: AMES SALMONELLA TYPHIMURIUM, Strain/Indicator: TA1535, Metabolic Activation: NONE, Method: STANDARD PLATE): inactive; negative | mutagenic call (Test System: AMES SALMONELLA TYPHIMURIUM, Strain/Indicator: TA1535, Metabolic Activation: RAT, LIVER, S-9, AROCLOR 1254, Method: STANDARD PLATE): inactive; negative | mutagenic call (Test System: AMES SALMONELLA TYPHIMURIUM, Strain/Indicator: TA1535, Metabolic Activation: RAT, LIVER, S-9, Method: STANDARD PLATE): inactive; negative | mutagenic call (Test System: AMES SALMONELLA TYPHIMURIUM, Strain/Indicator: TA1537, Metabolic Activation: HAMSTER, LIVER, S-9, AROCLOR 1254, Method: STANDARD PLATE): inactive; negative | mutagenic call (Test System: AMES SALMONELLA TYPHIMURIUM, Strain/Indicator: TA1537, Metabolic Activation: HAMSTER, LIVER, S-9, Method: STANDARD PLATE): inactive; negative | mutagenic call (Test System: AMES SALMONELLA TYPHIMURIUM, Strain/Indicator: TA1537, Metabolic Activation: MOUSE, LIVER, S-9, AROCLOR 1254, Method: STANDARD PLATE): inactive; negative | mutagenic call (Test System: AMES SALMONELLA TYPHIMURIUM, Strain/Indicator: TA1537, Metabolic Activation: MOUSE, LIVER, S-9, Method: STANDARD PLATE): inactive; negative | mutagenic call (Test System: AMES SALMONELLA TYPHIMURIUM, Strain/Indicator: TA1537, Metabolic Activation: NONE, Method: STANDARD PLATE): inactive; negative | mutagenic call (Test System: AMES SALMONELLA TYPHIMURIUM, Strain/Indicator: TA1537, Metabolic Activation: RAT, LIVER, S-9, AROCLOR 1254, Method: STANDARD PLATE): inactive; negative | mutagenic call (Test System: AMES SALMONELLA TYPHIMURIUM, Strain/Indicator: TA1537, Metabolic Activation: RAT, LIVER, S-9, Method: STANDARD PLATE): inactive; negative | mutagenic call (Test System: AMES SALMONELLA TYPHIMURIUM, Strain/Indicator: TA1538, Metabolic Activation: HAMSTER, LIVER, S-9, AROCLOR 1254, Method: STANDARD PLATE): inactive; negative | mutagenic call (Test System: AMES SALMONELLA TYPHIMURIUM, Strain/Indicator: TA1538, Metabolic Activation: HAMSTER, LIVER, S-9, Method: STANDARD PLATE): inactive; negative | mutagenic call (Test System: AMES SALMONELLA TYPHIMURIUM, Strain/Indicator: TA1538, Metabolic Activation: MOUSE, LIVER, S-9, AROCLOR 1254, Method: STANDARD PLATE): inactive; negative | mutagenic call (Test System: AMES SALMONELLA TYPHIMURIUM, Strain/Indicator: TA1538, Metabolic Activation: MOUSE, LIVER, S-9, Method: STANDARD PLATE): inactive; negative | mutagenic call (Test System: AMES SALMONELLA TYPHIMURIUM, Strain/Indicator: TA1538, Metabolic Activation: NONE, Method: STANDARD PLATE): inactive; negative | mutagenic call (Test System: AMES SALMONELLA TYPHIMURIUM, Strain/Indicator: TA1538, Metabolic Activation: RAT, LIVER, S-9, AROCLOR 1254, Method: STANDARD PLATE): inactive; negative | mutagenic call (Test System: AMES SALMONELLA TYPHIMURIUM, Strain/Indicator: TA1538, Metabolic Activation: RAT, LIVER, S-9, Method: STANDARD PLATE): inactive; negative | mutagenic call (Test System: E. COLI, Strain/Indicator: WP2 UVRA, Metabolic Activation: HAMSTER, LIVER, S-9, AROCLOR 1254, Method: STANDARD PLATE): inactive; negative | mutagenic call (Test System: E. COLI, Strain/Indicator: WP2 UVRA, Metabolic Activation: HAMSTER, LIVER, S-9, Method: STANDARD PLATE): inactive; negative | mutagenic call (Test System: E. COLI, Strain/Indicator: WP2 UVRA, Metabolic Activation: MOUSE, LIVER, S-9, AROCLOR 1254, Method: STANDARD PLATE): inactive; negative | mutagenic call (Test System: E. COLI, Strain/Indicator: WP2 UVRA, Metabolic Activation: MOUSE, LIVER, S-9, Method: STANDARD PLATE): inactive; negative | mutagenic call (Test System: E. COLI, Strain/Indicator: WP2 UVRA, Metabolic Activation: NONE, Method: STANDARD PLATE): inactive; negative | mutagenic call (Test System: E. COLI, Strain/Indicator: WP2 UVRA, Metabolic Activation: RAT, LIVER, S-9, AROCLOR 1254, Method: STANDARD PLATE): inactive; negative | mutagenic call (Test System: E. COLI, Strain/Indicator: WP2 UVRA, Metabolic Activation: RAT, LIVER, S-9, Method: STANDARD PLATE): inactive; negative

COc1ccc2c(c1OC)C(=O)O[C@@H]2[C@H]1c2c(cc3c(c2OC)OCO3)CCN1C
mutagenic call (End Point: CHROMOSOMAL ABERRATIONS, Test System: HUMAN LYMPHOCYTES, Metabolic Activation: NONE, Method: FISH): active; positive (ploidy changes) | mutagenic call (End Point: In vivo micronucleus, Test System: Micronucleated, binucleated and multinucleated hepatocytes, Species: Mouse, Strain/Sex: ddY/Male, Route: Intravenous): active; positive for micronucleated, binucleated and multinucleated cells when agent adm | mutagenic call (End Point: MICRONUCLEUS, Test System: HUMAN LYMPHOCYTES, Metabolic Activation: NONE): active; positive (aneuploidy and polyploidy)

[Cl][Sb]([Cl])([Cl])([Cl])[Cl]
mutagenic call (Test System: AMES SALMONELLA TYPHIMURIUM, Strain/Indicator: TA98, Metabolic Activation: NONE, Method: PREINCUBATION): inactive; negative | mutagenic call (Test System: AMES SALMONELLA TYPHIMURIUM, Strain/Indicator: TA98, Metabolic Activation: RAT, LIVER, S-9 (10%), Method: PREINCUBATION): inactive; negative | mutagenic call (Test System: AMES SALMONELLA TYPHIMURIUM, Strain/Indicator: TA100, Metabolic Activation: NONE, Method: PREINCUBATION): inactive; negative | mutagenic call (Test System: AMES SALMONELLA TYPHIMURIUM, Strain/Indicator: TA100, Metabolic Activation: RAT, LIVER, S-9 (10%), Method: PREINCUBATION): inactive; negative
